Test results: PMC7206119, “RIP1 inhibition blocks inflammatory diseases but not tumor growth or metastases” (Cell Death and Differentiation, 2019)

Columns and labels:
Test in all cases: biochemical
Set-up in all cases: DiscoverX kinase panel, active-site competition binding (KINOMEscan type), percent of control at one concentration
Details in all cases: competition binding, percent of control
SBK1 = SBK1 (Homo sapiens, UniProt Q52WX2)
CLK3 = CLK3 (Homo sapiens, UniProt P49761)
CAMK4 = CAMK4 (Homo sapiens, UniProt Q16566)
TAOK2 = TAOK2 (Homo sapiens, UniProt Q9UL54)
EIF2AK1 = EIF2AK1 (Homo sapiens, UniProt Q9BQI3)
PHKG2 = PHKG2 (Homo sapiens, UniProt P15735)
ERBB4 = ERBB4 (Homo sapiens, UniProt Q15303)
TBK1 = TBK1 (Homo sapiens, UniProt Q9UHD2)
PFTAIRE2 = molecular target: T1, PFTAIRE2 (Homo sapiens, UniProt Q96Q40)
T1 construct: gene CDK15

DMPK = DMPK (Homo sapiens, UniProt Q09013)
MLK1 = molecular target: T2, MLK1 (Homo sapiens, UniProt P80192)
T2 construct: gene MAP3K9

ASK2 = molecular target: T3, ASK2 (Homo sapiens, UniProt O95382)
T3 construct: gene MAP3K6

KIT(V559D,V654A) = KIT(V559D,V654A) (Homo sapiens, UniProt P10721, V559D/V654A)
CDC2L5 = molecular target: T4, CDC2L5 (Homo sapiens, UniProt Q14004)
T4 construct: gene CDK13

PKAC-alpha = molecular target: T5, PKAC-alpha (Homo sapiens, UniProt P17612)
T5 construct: gene PRKACA

BMX = BMX (Homo sapiens, UniProt P51813)
RIOK1 = RIOK1 (Homo sapiens, UniProt Q9BRS2)
ADCK3 = molecular target: T6, ADCK3 (Homo sapiens, UniProt Q8NI60)
T6 construct: gene COQ8A

KIT(L576P) = KIT(L576P) (Homo sapiens, UniProt P10721, L576P)
IRAK1 = IRAK1 (Homo sapiens, UniProt P51617)
PIK3C2G = PIK3C2G (Homo sapiens, UniProt O75747)
PIK3C2G, sequence (O75747 whole entry): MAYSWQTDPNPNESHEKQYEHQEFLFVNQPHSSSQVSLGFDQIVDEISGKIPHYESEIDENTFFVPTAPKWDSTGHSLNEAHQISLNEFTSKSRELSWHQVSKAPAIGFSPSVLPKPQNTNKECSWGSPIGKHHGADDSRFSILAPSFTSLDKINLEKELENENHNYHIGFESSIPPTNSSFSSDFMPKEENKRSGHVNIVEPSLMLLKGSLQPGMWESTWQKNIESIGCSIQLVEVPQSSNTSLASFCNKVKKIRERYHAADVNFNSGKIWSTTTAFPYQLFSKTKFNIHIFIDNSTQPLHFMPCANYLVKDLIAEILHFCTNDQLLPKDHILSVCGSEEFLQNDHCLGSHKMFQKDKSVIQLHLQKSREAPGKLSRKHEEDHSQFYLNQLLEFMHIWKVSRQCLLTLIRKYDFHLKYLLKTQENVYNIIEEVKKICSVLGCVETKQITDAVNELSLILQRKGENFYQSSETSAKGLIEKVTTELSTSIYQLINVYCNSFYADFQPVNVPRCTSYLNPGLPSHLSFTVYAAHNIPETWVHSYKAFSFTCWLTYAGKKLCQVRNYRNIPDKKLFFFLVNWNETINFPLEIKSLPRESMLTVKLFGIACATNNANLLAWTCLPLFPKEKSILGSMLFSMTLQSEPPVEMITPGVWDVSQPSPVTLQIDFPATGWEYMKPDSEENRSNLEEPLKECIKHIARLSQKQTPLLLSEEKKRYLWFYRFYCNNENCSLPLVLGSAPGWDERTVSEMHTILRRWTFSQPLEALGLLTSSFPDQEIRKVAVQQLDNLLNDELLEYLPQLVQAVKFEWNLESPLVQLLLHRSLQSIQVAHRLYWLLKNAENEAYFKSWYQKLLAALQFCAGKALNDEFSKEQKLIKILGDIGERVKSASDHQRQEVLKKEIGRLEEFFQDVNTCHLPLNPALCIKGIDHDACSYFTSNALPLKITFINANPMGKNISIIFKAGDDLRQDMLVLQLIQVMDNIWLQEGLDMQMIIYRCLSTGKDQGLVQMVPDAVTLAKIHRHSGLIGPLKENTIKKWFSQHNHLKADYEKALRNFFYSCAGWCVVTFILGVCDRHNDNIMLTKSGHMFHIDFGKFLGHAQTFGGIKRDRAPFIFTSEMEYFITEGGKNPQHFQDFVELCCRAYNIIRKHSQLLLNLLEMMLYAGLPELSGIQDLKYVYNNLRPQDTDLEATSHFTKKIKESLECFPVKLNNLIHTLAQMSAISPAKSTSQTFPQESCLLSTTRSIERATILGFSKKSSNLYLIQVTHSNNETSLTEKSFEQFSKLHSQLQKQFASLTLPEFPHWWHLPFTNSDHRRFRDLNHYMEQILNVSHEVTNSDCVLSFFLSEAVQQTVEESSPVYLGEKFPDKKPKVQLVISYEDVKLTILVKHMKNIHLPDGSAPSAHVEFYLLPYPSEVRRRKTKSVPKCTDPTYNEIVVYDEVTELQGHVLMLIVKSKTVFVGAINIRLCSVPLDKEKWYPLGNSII

CLK3, sequence (P49761 whole entry): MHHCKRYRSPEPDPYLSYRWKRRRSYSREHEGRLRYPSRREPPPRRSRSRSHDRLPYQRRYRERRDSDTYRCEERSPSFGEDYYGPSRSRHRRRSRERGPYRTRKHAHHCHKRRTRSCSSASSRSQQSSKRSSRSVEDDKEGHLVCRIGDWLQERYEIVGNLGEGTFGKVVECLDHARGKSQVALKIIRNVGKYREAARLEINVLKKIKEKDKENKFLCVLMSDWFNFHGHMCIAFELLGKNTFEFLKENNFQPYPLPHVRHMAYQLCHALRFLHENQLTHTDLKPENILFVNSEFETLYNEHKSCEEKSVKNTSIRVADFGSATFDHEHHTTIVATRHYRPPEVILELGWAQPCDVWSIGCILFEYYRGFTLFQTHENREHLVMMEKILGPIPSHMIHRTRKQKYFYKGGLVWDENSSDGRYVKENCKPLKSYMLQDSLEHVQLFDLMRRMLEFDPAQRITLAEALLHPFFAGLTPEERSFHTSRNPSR
T3 sequence (O95382 whole entry): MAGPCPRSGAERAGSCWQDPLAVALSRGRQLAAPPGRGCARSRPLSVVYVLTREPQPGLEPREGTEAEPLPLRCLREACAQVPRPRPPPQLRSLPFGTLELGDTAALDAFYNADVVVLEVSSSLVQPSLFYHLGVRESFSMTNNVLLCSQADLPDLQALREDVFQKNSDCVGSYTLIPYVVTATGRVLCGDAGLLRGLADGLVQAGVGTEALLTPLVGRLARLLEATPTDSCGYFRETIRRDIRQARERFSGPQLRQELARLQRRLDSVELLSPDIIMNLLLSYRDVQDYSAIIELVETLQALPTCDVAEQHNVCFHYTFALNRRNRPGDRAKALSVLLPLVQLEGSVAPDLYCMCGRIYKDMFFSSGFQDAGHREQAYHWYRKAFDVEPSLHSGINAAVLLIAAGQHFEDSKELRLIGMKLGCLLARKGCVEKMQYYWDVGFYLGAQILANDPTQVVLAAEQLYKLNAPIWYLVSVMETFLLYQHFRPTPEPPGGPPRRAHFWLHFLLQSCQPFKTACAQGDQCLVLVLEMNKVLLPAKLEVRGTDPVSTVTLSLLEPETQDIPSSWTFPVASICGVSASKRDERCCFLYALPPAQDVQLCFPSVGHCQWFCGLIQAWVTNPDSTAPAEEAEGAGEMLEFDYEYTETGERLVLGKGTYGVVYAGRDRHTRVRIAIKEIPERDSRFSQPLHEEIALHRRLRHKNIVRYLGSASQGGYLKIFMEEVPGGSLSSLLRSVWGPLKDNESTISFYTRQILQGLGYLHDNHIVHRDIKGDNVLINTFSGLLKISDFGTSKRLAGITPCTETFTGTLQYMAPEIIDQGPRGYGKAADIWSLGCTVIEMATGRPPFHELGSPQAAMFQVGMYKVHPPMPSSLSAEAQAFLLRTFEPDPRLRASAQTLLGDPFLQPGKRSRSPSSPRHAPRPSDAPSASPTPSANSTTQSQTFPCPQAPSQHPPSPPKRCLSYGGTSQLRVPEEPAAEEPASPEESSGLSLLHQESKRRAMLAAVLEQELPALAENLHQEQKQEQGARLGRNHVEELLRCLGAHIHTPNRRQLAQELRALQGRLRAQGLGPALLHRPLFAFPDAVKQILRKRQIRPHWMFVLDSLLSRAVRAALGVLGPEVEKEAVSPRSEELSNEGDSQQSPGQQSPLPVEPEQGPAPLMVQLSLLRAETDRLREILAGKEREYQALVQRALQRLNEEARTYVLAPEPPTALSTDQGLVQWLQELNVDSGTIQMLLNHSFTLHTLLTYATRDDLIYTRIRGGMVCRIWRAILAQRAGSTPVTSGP
TAOK2, sequence (Q9UL54 whole entry): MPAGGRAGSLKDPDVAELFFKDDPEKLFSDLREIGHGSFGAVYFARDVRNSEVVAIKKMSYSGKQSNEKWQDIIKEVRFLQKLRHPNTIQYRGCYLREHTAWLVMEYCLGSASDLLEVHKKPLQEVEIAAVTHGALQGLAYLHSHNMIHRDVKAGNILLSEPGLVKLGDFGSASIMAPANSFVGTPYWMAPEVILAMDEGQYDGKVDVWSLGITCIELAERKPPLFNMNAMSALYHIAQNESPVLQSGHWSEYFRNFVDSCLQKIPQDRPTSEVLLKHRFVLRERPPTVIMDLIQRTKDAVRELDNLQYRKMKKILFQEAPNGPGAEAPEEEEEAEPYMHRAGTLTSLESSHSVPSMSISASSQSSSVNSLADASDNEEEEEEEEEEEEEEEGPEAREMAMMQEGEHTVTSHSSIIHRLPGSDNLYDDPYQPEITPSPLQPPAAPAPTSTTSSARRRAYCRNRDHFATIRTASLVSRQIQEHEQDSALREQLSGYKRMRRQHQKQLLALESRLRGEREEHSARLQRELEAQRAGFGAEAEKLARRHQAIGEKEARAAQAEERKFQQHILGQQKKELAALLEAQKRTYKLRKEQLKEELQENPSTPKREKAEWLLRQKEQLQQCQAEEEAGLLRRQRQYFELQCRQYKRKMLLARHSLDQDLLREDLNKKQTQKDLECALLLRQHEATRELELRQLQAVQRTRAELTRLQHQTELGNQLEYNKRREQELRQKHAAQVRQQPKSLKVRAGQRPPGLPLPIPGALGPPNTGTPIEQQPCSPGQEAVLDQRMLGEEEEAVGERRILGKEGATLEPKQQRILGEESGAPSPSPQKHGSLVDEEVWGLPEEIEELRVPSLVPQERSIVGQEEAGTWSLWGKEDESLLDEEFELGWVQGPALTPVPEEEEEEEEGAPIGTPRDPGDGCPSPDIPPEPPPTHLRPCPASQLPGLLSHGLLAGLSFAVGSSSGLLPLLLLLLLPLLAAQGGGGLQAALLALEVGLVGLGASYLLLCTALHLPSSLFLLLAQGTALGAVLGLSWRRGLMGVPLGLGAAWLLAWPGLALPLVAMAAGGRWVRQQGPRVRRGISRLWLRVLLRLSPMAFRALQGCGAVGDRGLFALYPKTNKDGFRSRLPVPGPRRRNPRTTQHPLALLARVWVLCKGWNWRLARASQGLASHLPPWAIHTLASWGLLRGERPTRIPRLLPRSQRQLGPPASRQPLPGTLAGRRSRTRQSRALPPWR
DMPK, sequence (Q09013 whole entry): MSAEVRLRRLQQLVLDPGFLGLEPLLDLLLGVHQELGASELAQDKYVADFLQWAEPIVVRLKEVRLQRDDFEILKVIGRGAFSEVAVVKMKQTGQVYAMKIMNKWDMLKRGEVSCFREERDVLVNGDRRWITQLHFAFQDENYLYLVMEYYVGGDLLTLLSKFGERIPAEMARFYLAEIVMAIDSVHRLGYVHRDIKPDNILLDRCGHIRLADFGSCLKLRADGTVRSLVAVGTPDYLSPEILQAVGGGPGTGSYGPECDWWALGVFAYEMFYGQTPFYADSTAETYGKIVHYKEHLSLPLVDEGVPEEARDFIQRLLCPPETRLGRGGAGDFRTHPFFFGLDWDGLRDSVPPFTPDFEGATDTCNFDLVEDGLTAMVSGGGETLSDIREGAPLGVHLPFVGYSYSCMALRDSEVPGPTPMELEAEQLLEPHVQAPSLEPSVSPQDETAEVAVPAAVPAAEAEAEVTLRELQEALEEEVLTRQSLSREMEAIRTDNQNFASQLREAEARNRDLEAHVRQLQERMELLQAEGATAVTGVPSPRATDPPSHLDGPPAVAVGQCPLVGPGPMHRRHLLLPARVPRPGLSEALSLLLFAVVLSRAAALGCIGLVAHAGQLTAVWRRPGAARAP

COc1cc2c(cn1)N(C)C(=O)[C@@H](NC(=O)c1nc3n(n1)[C@H](c1ccccc1)CC3)CC2 [GNE684, (S)-N-((S)-7-methoxy-1-methyl-2-oxo-2,3,4,5-tetrahydro-1H-pyrido[3,4-b]azepin-3-yl)-5-phenyl-6,7-dihydro-5H-pyrrolo[1,2-b][1,2,4]triazole-2-carboxamide]
remaining binding at 10 µM (SBK1): 100%
remaining binding at 10 µM (CLK3): 97%
remaining binding at 10 µM (CAMK4): 86%
remaining binding at 10 µM (TAOK2): 92%
remaining binding at 10 µM (EIF2AK1): 100%
remaining binding at 10 µM (PHKG2): 75%
remaining binding at 10 µM (ERBB4): 85%
remaining binding at 10 µM (TBK1): 94%
remaining binding at 10 µM (PFTAIRE2): 100%
remaining binding at 10 µM (DMPK): 83%
remaining binding at 10 µM (MLK1): 99%
remaining binding at 10 µM (ASK2): 98%
remaining binding at 10 µM (KIT(V559D,V654A)): 100%
remaining binding at 10 µM (CDC2L5): 100%
remaining binding at 10 µM (PKAC-alpha): 73%
remaining binding at 10 µM (BMX): 94%
remaining binding at 10 µM (RIOK1): 84%
remaining binding at 10 µM (ADCK3): 98%
remaining binding at 10 µM (KIT(L576P)): 100%
remaining binding at 10 µM (IRAK1): 96%
remaining binding at 10 µM (PIK3C2G): 100%
